Reference: the supplement of paper PMC9763283

Assays:
Assay in all cases: area under growth-rate inhibition curve (AUC GRI) (dimensionless (GR-based AUC)); higher = less growth inhibition
Details in all cases: exposure time: 72 h; concentrations: 0.1, 1, 10 uM
MDA-MB-231 = test system: MDA-MB-231
Procedure, shortened: (§1)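 Six breast cancer cell line models (two triple-negative lines, plus parental and lapatinib + trastuzumab-resistant HER2+ lines) were plated at optimised log-phase densities and exposed to compound at 0.1, 1 or 10 µM for 72 h. Cells were fixed in 4% paraformaldehyde, and nuclei were stained with Hoechst 33342 or DAPI, imaged and counted. Area under the growth-rate inhibition curve came from 2 biological replicates, with growth corrected using Day 0 plates, untreated Day 3 plates and DMSO controls.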

SKBR3-P = test system: SKBR3-P
Procedure, shortened: as §1

BT474-P = test system: BT474-P
Procedure, shortened: as §1

BT474-LTR = test system: BT474-LTR
Procedure, shortened: as §1

MDA-MB-468 = test system: MDA-MB-468
Procedure, shortened: as §1

SKBR3-LTR = test system: SKBR3-LTR
Procedure, shortened: as §1

SMILES | area under growth-rate inhibition curve (MDA-MB-231) | area under growth-rate inhibition curve (SKBR3-P) | area under growth-rate inhibition curve (BT474-P) | area under growth-rate inhibition curve (BT474-LTR) | area under growth-rate inhibition curve (MDA-MB-468) | area under growth-rate inhibition curve (SKBR3-LTR)
Cc1ccccc1C(OCCN(C)C)c1ccccc1.O=C(O)CC(O)(CC(=O)O)C(=O)O (configuration not stated) [Orphenadrine Citrate] | 1.02 | 0.995 | 1.03 | 1.06 | 1.04 | 1.07
C=CC[N+]1(C2CC3C4CCC5CC(O)C(N6CCOCC6)CC5(C)C4CCC3(C)C2OC(C)=O)CCCC1.[Br-] (configuration not stated) [Rocuronium Bromide] | 1.02 | 1.03 | 1.07 | 1.1 | 1.03 | 1.05
O=C(Nc1cccc(Cl)c1)c1ccccn1 | 1.03 | 1.01 | 1.02 | 1.06 | 1.02 | 1.04
C[C@H]1CN(C[C@H](Cc2ccccc2)C(=O)NCC(=O)O)CC[C@@]1(C)c1cccc(O)c1 [Alvimopan] | 1.03 | 1.02 | 0.995 | 1.03 | 1.03 | 1.04
COc1ccccc1OCCNCC(O)COc1cccc2[nH]c3ccccc3c12 (configuration not stated) [Carvedilol] | 1.03 | 1 | 0.957 | 1.03 | 0.937 | 1.07
CN(C)CCC(c1ccc(Br)cc1)c1ccccn1.O=C(O)/C=C\C(=O)O (configuration not stated) [Brompheniramine hydrogen maleate] | 1.03 | 0.998 | 1.05 | 1.09 | 1.04 | 1.04
OC[C@H]1O[C@@H](c2ccc(Cl)c(Cc3ccc(O[C@H]4CCOC4)cc3)c2)[C@H](O)[C@@H](O)[C@@H]1O | 1.03 | 1.03 | 1.03 | 1.07 | 1.05 | 1.09
OCCN1CCN(CCCN2c3ccccc3Sc3ccc(Cl)cc32)CC1 [Perphenazine] | 1.04 | 1.01 | 0.983 | 1.03 | 1.03 | 1.04
Br.Cc1ccc(Sc2ccccc2N2CCNCC2)c(C)c1 | 0.879 | 0.872 | 0.865 | 0.912 | 0.885 | 0.929
O=C(NCc1ccncc1)C12CC3CC(C1)CC(c1ccc(Cl)cc1)(C3)C2 | 1.04 | 1.02 | 0.985 | 1.08 | 1.01 | 1.04
Nc1nc2c(cnn2CCc2ccccc2)c2nc(-c3ccco3)nn12 | 1 | 0.666 | 0.99 | 0.94 | 0.781 | 0.902
CCCC(=O)Nc1ccc(OCC(O)CNC(C)C)c(C(C)=O)c1.[Cl-].[H+] (configuration not stated) [Acebutolol HCl] | 1.03 | 1.04 | 1.05 | 1.11 | 1.03 | 1.07
CCOC(=O)NC1CCC2C(C1)CC1C(=O)OC(C)C1C2C=Cc1ccc(-c2cccc(F)c2)cn1 (configuration not stated) [Vorapaxar] | 1.01 | 0.944 | 0.947 | 1.04 | 0.966 | 0.983
Nc1cccc2c1CN(C1CCC(=O)NC1=O)C2=O (configuration not stated) [lenalidomide] | 1.04 | 1.02 | 1.01 | 1.03 | 1.04 | 1.06
[Cl-].[H+].c1ccc(CC2=NCCN2)cc1 [Tolazoline HCl] | 1.04 | 1.02 | 1.06 | 1.1 | 1.05 | 1.1
CC(C)(c1ccc(OCC(O)CO)cc1)c1ccc(OCC(O)CCl)cc1 (stereo not drawn) [EPI-001] | 1.05 | 1.01 | 0.993 | 1.07 | 1.01 | 1.07
CCOc1cc(N)c(Cl)cc1C(=O)NCC1CN(Cc2ccc(F)cc2)CCO1.O=C(O)CC(O)(CC(=O)O)C(=O)O (configuration not stated) [Mosapride Citrate] | 1.03 | 1.01 | 1.04 | 1.09 | 1.02 | 1.02
C[C@@H](NCCCc1cccc(C(F)(F)F)c1)c1cccc2ccccc12.[Cl-].[H+] [Cinacalcet HCl] | 0.931 | 0.909 | 0.9 | 0.922 | 0.896 | 0.883
CN(C)CCC=C1c2ccccc2CCc2ccccc21.Cl [Amitriptyline HCl] | 1.03 | 0.983 | 1.03 | 1.08 | 0.997 | 1.09
Cc1cc2c(cc1CC(=O)c1sccc1S(=O)(=O)[N-]c1onc(C)c1Cl)OCO2.[Na+] [Sitaxentan sodium] | 1.04 | 1.04 | 1.06 | 1.08 | 1.04 | 1.07
CC(C)c1cc(-c2ccc(F)c3ccccc23)nc(N)n1 | 0.999 | 1.03 | 1.03 | 1.08 | 1 | 1.07
COCCc1ccc(OCC(O)CNC(C)C)cc1.O=C(O)C(O)C(O)C(=O)O (configuration not stated) [Metoprolol Tartrate] | 1.01 | 0.999 | 0.987 | 1.01 | 0.98 | 0.997
Cc1nc2n(c(=O)c1CCN1CCC(c3noc4cc(F)ccc34)CC1)CCCC2O (configuration not stated) [Paliperidone] | 1.05 | 1.02 | 0.98 | 1.02 | 1.05 | 1.06
CN(C)CCc1c[nH]c2ccc(CS(=O)(=O)N3CCCC3)cc12.O=C(O)CC(O)C(=O)O [Almotriptan Malate] | 1.02 | 1.02 | 1.02 | 1.09 | 1.04 | 1.06
COc1ccc(C(Cl)=C(c2ccc(OC)cc2)c2ccc(OC)cc2)cc1 [Chlorotrianisene] | 1.01 | 0.987 | 0.983 | 1.08 | 1 | 1.05
C[C@]12CCC(=O)C=C1CC[C@H]1[C@@H]3CC[C@@](C)(O)[C@@]3(C)C[C@H](O)[C@@]12F [Fluoxymesterone] | 0.995 | 1.01 | 0.937 | 0.955 | 1.04 | 1.03

SMILES | area under growth-rate inhibition curve (MDA-MB-231) | area under growth-rate inhibition curve (SKBR3-P) | area under growth-rate inhibition curve (BT474-P) | area under growth-rate inhibition curve (BT474-LTR) | area under growth-rate inhibition curve (MDA-MB-468) | area under growth-rate inhibition curve (SKBR3-LTR)
COC(=O)C1=CCCN(C)C1.[Br-].[H+] [Arecoline] | 1.03 | 1.02 | 1.04 | 1.06 | 0.988 | 1.03
CCc1cc(C(C)=NOCc2ccc(C3CCCCC3)c(C(F)(F)F)c2)ccc1CN1CC(C(=O)O)C1 [BAF312 (Siponimod)] | 1.01 | 0.99 | 1.01 | 0.989 | 0.961 | 0.968
CN1CCC(c2c[nH]c3ccc(O)cc23)CC1 | 1 | 1.02 | 0.996 | 0.996 | 0.984 | 0.997
O=C(NCC1CCOCC1)c1cnc(Nc2ccc(Cl)cc2Cl)nc1C(F)(F)F | 1 | 1.02 | 0.983 | 1.04 | 1.01 | 1.05
O=c1[nH]c2ccccc2n1C1CCN(CCCC(c2ccc(F)cc2)c2ccc(F)cc2)CC1 [Pimozide] | 0.991 | 0.972 | 0.974 | 0.991 | 0.959 | 1.01
COc1ccccc1Oc1c(NS(=O)(=O)c2ccc(C(C)(C)C)cc2)nc(-c2ncccn2)nc1OCCO [Bosentan] | 1.03 | 1.02 | 1.03 | 1.08 | 1.03 | 1.05
CCCCc1ncc(C=C(Cc2cccs2)C(=O)O)n1Cc1ccc(C(=O)O)cc1.CS(=O)(=O)O [Eprosartan mesylate] | 1.04 | 1.03 | 1.02 | 1.06 | 1.05 | 1.06
CN1CCC(=C2c3ccccc3CCn3c(C=O)cnc32)CC1 [Alcaftadine] | 1.04 | 1.02 | 1 | 1.04 | 1.03 | 1.06
CCN(Cc1ccncc1)C(=O)C(CO)c1ccccc1 (configuration not stated) [Tropicamide] | 1.02 | 1.01 | 1.05 | 1.09 | 1.01 | 1.07
C#C[C@]1(O)CC[C@H]2[C@@H]3CCC4=CC(=O)CC[C@@H]4[C@H]3C(=C)C[C@@]21CC [Etonogestrel] | 0.976 | 1 | 0.958 | 0.993 | 1.03 | 1.05
Cc1c(C(=O)NN2CCCCC2)nn(-c2ccc(Cl)cc2Cl)c1-c1ccc(Cl)cc1 [Rimonabant] | 1 | 0.953 | 0.979 | 1.07 | 0.987 | 1.04
Cl.Clc1ccc2nsnc2c1NC1=NCCN1 [Tizanidine HCl] | 1.02 | 1 | 1.02 | 1.07 | 1.02 | 1.01
CCNC1(C(N)=O)CCN(c2ncnc3c2nc(-c2ccccc2Cl)n3-c2ccc(Cl)cc2)CC1.[Cl-].[H+] | 0.999 | 1.01 | 0.991 | 1.06 | 1 | 1.04
CC(C)C[C@@H]1NC(=O)[C@@H](C(C)C)NC(=O)[C@@H]2CCCN2C(=O)[C@@H](CC(=O)O)NC(=O)[C@@H](Cc2c[nH]c3ccccc23)NC1=O [BQ-123] | 0.988 | 1.01 | 0.983 | 1.02 | 0.996 | 1.03
NC(N)=NCCCC(N)C(=O)NC(CCCN=C(N)N)C(=O)N1CCCC1C(=O)N1CC(O)CC1C(=O)NCC(=O)NC(Cc1cccs1)C(=O)NC(CO)C(=O)N1Cc2ccccc2CC1C(=O)N1C(C(=O)NC(CCCN=C(N)N)C(=O)O)CC2CCCCC21 (configuration not stated) [HOE 140] | 1.01 | 1.04 | 1.03 | 1.06 | 1.02 | 1.04
CC1=C(C(=O)OC2CCCCC2)C(c2ccc([N+](=O)[O-])cc2)C2=C(CC(C)(C)CC2=O)N1 (configuration not stated) [FLI-06] | 0.878 | 0.915 | 0.895 | 1.01 | 0.915 | 0.928
CNCC[C@H](Oc1cccc2ccccc12)c1cccs1.[Cl-].[H+] [Duloxetine HCl] | 1 | 0.964 | 0.892 | 0.98 | 0.88 | 1.02
Cc1cccc(C)c1NC(=O)CN1CCCC1=O [Nefiracetam] | 1.02 | 1 | 1.05 | 1.06 | 1.03 | 1.03
NCC(=O)O [Glycine] | 1.04 | 1.03 | 1.03 | 1.05 | 1.03 | 1.06
CCCCCCCCc1ccc(CCC(N)(CO)CO)cc1.Cl [Fingolimod (FTY720) HCl] | 0.829 | 0.901 | 0.836 | 0.96 | 0.864 | 0.814
Cc1nc(C#Cc2ccnc(Cl)c2)c(C)n1-c1ccc(OC(F)(F)F)cc1 | 1.03 | 1 | 0.969 | 1.09 | 1 | 0.968
CC(=O)[C@H]1CC[C@H]2[C@@H]3CC=C4C[C@@H](O)CC[C@]4(C)[C@H]3CC[C@]12C [Pregnenolone] | 1.03 | 0.999 | 1.02 | 1.09 | 1.02 | 1.05
CN(C)CCOc1ccc(/C(=C(/CCCl)c2ccccc2)c2ccccc2)cc1.O=C(O)CC(O)(CC(=O)O)C(=O)O [Toremifene Citrate] | 0.941 | 0.98 | 0.893 | 0.945 | 0.908 | 0.977
CC(C)(C)NC[C@@H](O)COc1nsnc1N1CCOCC1.O=C(O)/C=C\C(=O)O [Timolol Maleate] | 1.03 | 1.02 | 1.04 | 1.11 | 1.04 | 1.06
CCC(=O)NCC[C@@H]1CCc2ccc3c(c21)CCO3 [Ramelteon] | 1.03 | 1.03 | 1.05 | 1.1 | 1.05 | 1.06
CN(C)C(=O)C(CCN1CCC(O)(c2ccc(Cl)cc2)CC1)(c1ccccc1)c1ccccc1.[Cl-].[H+] [Loperamide HCl] | 1.03 | 0.943 | 0.882 | 0.94 | 0.911 | 1
